These results are taken from patent US20080230094A1, “METHOD TO INHIBIT GROWTH OF MICROORGANISMS IN AQUEOUS SYSTEMS AND ON SUBSTRATES USING PERSULFATE AND A BROMIDE” (Buckman Laboratories International, Inc., priority 2007, published 2008).

The assay deals with Pseudomonas aeruginosa. Kind of assay: Biocidal efficacy in pulp slurry inoculated with Pseudomonas aeruginosa (plate count, log reduction). It is filed as cell-based. The following applies: 1000 ppm as pure compound in pulp slurry; 24 hr incubation. On the procedure:
A concentrated solution of active biocidal composition was prepared by mixing 44% (w/v) of aqueous ammonium persulfate with 40% (w/v) aqueous sodium bromide in equal volume. The final mixture contains 22% ammonium persulfate and 20% NaBr at pH 2.2. […] Four hours after mixing, the concentrated solution was diluted with water to contain 5% ammonium persulfate. This diluted solution (5%) was then added to 50 ml pulp slurry to give a biocidal concentration of 10 ppm (as ammonium persulfate) in pulp slurry. The pulp slurry was then inoculated with 3×10^6 cells/ml of Pseudomonas aeruginosa, incubated at room temperature for 24 hr, plated in nutrient agar. The colony forming units per milliliter (cfu/ml) was counted and compared with each individual component acting alone.
The pulp slurry contains white bleached dry pulp at 5 g/L; cationic starch at 10 bl/ton dry pulp; CaCO3 at 300 bl/ton dry pulp; ASA size at 3-4 lb/ton dry pulp; retention aids at 0.5-1.0 bl/ton dry pulp; defoamer at 250 g/ton dry pulp. The pulp slurry has a consistency of about 0.5 to 0.7%. The final pH of the pulp substrate after autoclave is about 8.0.

For the compound `[Br-].[Na+]` [NaBr, sodium bromide], the CFU/ml is listed as 4.2 × 10^6 CFU/ml and the “Log Reduction” value was 0.00.
